For 38 compounds, absorption maximum results are on record in the Deep4Chem optical property database.

This data set is described as follows: solvent given as SMILES.

As to `Cc1ccc(C2=C3C=CC(Nc4ccccc4)=[N+]3[B-](F)(F)n3c(Nc4ccccc4)ccc32)cc1`, the absorption maximum (in CO) was 588 nm.

Consider `FC(F)(F)c1ccc(/C=C2\C=C(c3ccccc3)C=C2c2ccccc2)cc1`, for which the absorption maximum (in C1CCOC1) turned out to be 450 nm.

For the setting “in Cc1ccccc1”, `N#Cc1c(-n2c3ccc(I)cc3c3cc(I)ccc32)c(-n2c3ccc(I)cc3c3cc(I)ccc32)c(C#N)c(-n2c3ccc(I)cc3c3cc(I)ccc32)c1-n1c2ccc(I)cc2c2cc(I)ccc21` came in with an absorption maximum of 361 nm.

As to `COC(=O)CN1C(=O)c2cc3ccc(N(C)C)cc3cc2C1=O`, the absorption maximum is, setting by setting: (in C1CCOC1) 373 nm; (in CC#N) 380 nm; (in CC(C)=O) 375 nm; (in CCO) 379 nm; (in Cc1ccccc1) 373 nm; (in ClC(Cl)Cl) 380 nm.

For the compound `Cc1cc(C)c(B(c2cc(C#Cc3ccccc3)sc2-c2sc(C#Cc3ccccc3)cc2P(=O)(c2ccccc2)c2ccccc2)c2c(C)cc(C)cc2C)c(C)c1`, the absorption maximum (in CO) came out at 400 nm.

On to `Nc1cc2nc3cc(Br)c(Br)cc3nc2cc1N`, for which the absorption maximum (in CCO) is 442 nm.

For the compound `COc1ccc(/N=N/c2c(O)c3ccccc3n(C)c2=O)c(S(=O)(=O)O)c1`, the absorption maximum is listed as 449 nm (in C1CCOC1); 451 nm (in CC(C)=O); 446 nm (in CCOC(C)=O); 448 nm (in CO); 447 nm (in CS(C)=O); 449 nm (in Cc1ccccc1). Moreover, the absorption maximum is, setting by setting: (in ClCCl) 451 nm; (in O) 447 nm.

`CC1=C(C)c2cccc3c2c(cc2nc4ccccc4nc23)O1` had an absorption maximum (in ClCCl) of 497 nm.

On to `COc1ccc(N(c2ccc(OC)cc2)c2ccc(-c3ccc(C=C(C#N)C#N)cc3)cc2)cc1`, for which, for the setting “in ClC(Cl)Cl”, the absorption maximum was 483 nm.

Where the note is “in ClCCl”, `c1ccc(-c2c3ccccc3c(-c3ccc4ccccc4c3)c3ccccc23)nc1` displayed an absorption maximum of 375 nm.

In the case of `CC1=CC(C)=[N+]2C1=Cc1c3ccccc3c(C#Cc3ccccc3)n1[B-]2(F)F`, the absorption maximum (in CCCCCC) stood at 608 nm; the absorption maximum (in CCCCCCCCO) stood at 612 nm; the absorption maximum (in CCOC(C)=O) is recorded as 606 nm; the absorption maximum (in CN(C)C=O) stood at 612 nm; the absorption maximum (in ClCCl) is listed as 612 nm.

`F[Si-](F)(c1c2ccccc2cc2ccccc12)(c1c2ccccc2cc2ccccc12)c1c2ccccc2cc2ccccc12`: the absorption maximum (in C1CCOC1) was found to be 392 nm.

As to `COc1ccc(C2=N/C(=C\c3ccc(C#N)cc3)C(=O)N2)cc1OC`, the absorption maximum (in C1COCCO1) is reported as 405 nm.

For the setting “in ClC(Cl)Cl”, `CCCCN1c2ccccc2Sc2cc(/C=C\c3cc(=O)oc4ccc(C)cc34)ccc21` had an absorption maximum of 423 nm.

Regarding `N#Cc1nc(N(Cc2ccc(Cl)cc2)Cc2ccc(Cl)cc2)c(C#N)nc1N(Cc1ccc(Cl)cc1)Cc1ccc(Cl)cc1`, under “in ClC(Cl)Cl”, the absorption maximum came to 485 nm.

`O=Cc1ccc(-c2ccc(O)c(-c3nc4ccccc4s3)c2)s1`: the absorption maximum is, setting by setting: (in ClCCl) 350 nm; (in O) 338 nm.

On to `Cn1c2ccccc2[c+](-c2ccccc2)c2cc([N+](=O)[O-])ccc21`, for which the absorption maximum reads like this: (in CC#N) 428.3 nm; (in CCO) 426.3 nm; (in CO) 432.1 nm; (in CS(C)=O) 434.3 nm.

For the compound `COc1ccc(-c2cnc(C#Cc3ccccc3)o2)cc1OC`, the absorption maximum (in ClCCl) is 330 nm.

Turning to `FC(F)(F)C(F)(F)C(F)(F)C1=NC2=C(Br)C=C3c4cc(Br)c5nc(C(F)(F)C(F)(F)C(F)(F)F)nc6c(Br)cc(c4c56)=C4C=C(Br)C(=N1)C2C34` (stereo unspecified), the absorption maximum (in C1CCOC1) is recorded as 475 nm.

`N#Cc1cc2ccc3cc(C#N)c4ccccc4c3c2c2ccccc12` returned an absorption maximum (in ClC(Cl)Cl) of 422 nm.

Compound `CC(C)(C)c1ccc(-c2nc(-c3ccc(C(C)(C)C)cc3)nc(-c3cc(C#N)c(-n4c5ccccc5c5c6oc7ccccc7c6ccc54)c(C#N)c3)n2)cc1` registered an absorption maximum (in C1CCOC1) of 397.48 nm.

With `CC1=[N+]2C(=C(c3ccccc3C)c3ccc(C)n3[B-]2(F)F)C=C1c1cc2n(c1)[B-](F)(F)[N+]1=CC=CC1=C2c1c(C)cc(C)cc1C`, the absorption maximum by setting is: (in C1CCCCC1) 595 nm; (in CCOC(C)=O) 599 nm.

Take `CN(C)c1ccc(/C=C/c2cc[n+](Cc3cc(C[n+]4ccc(/C=C/c5ccc(N(C)C)cc5)cc4)cc(C[n+]4ccc(/C=C/c5ccc(N(C)C)cc5)cc4)c3)cc2)cc1`: the absorption maximum reads like this: (in C1COCCO1) 480 nm; (in CC(C)O) 490 nm; (in CCCCCCCCO) 489 nm; (in CCCCO) 491 nm; (in CCCO) 495 nm; (in CCO) 498 nm. The absorption maximum is, setting by setting: (in CO) 498 nm; (in CS(C)=O) 491 nm; (in ClC(Cl)Cl) 500 nm; (in ClCCl) 500 nm.

For `Cc1ccc2c(c1)C1(c3ccccc3-c3ccccc31)c1cc(C)ccc1N2c1ccc2c(c1)Sc1ccccc1P2(=S)c1ccccc1` (stereo unspecified), under “in Cc1ccccc1”, the absorption maximum stood at 311.25 nm.

`F[B-]1(F)n2c(c(-c3ccccc3)c(-c3ccccc3)c2-c2ccccc2)C(c2ccccc2)=C2C(c3ccccc3)=C(c3ccccc3)C(c3ccccc3)=[N+]21` displayed an absorption maximum (in C1CCOC1) of 573 nm.

Compound `Cc1cccc(C2=Cc3c4ccccc4cc[n+]3[B-](F)(F)O2)c1` had an absorption maximum (in ClC(Cl)Cl) of 401.5 nm.

Regarding `CC1=CC(/C=C/c2ccc(N(C)C)cc2)=[N+]2C1=C(c1ccc(I)cc1)c1c(C)cc(/C=C/c3ccc(N(C)C)cc3)n1[B-]2(F)F`, the absorption maximum (in CC#N) was found to be 701 nm.

As for `C#CCOc1ccc(/C=C/C2=[N+]3C(=C(c4ccc(N(CC)CC)cc4)c4c(C)cc(/C=C/c5ccc(OCC(=O)OC)cc5)n4[B-]3(F)F)C(C)=C2)cc1`, the absorption maximum (in CO) was 640 nm.

The compound `O=c1oc2ccccc2cc1-c1cn2ccccc2n1` returned an absorption maximum (in ClC(Cl)Cl) of 349 nm.

For the setting “in Cc1ccccc1”, `c1ccc(-c2nc(-c3ccccc3)nc(-c3ccc(-n4c5ccc(-n6c7ccccc7c7ccccc76)cc5c5cc(-n6c7ccccc7c7ccccc76)ccc54)cc3)n2)cc1` gave an absorption maximum of 368 nm.

Regarding `CC1=C(c2ccccc2)C2=Cc3c(-c4ccccc4)c(C)c(C)n3[B-](F)(F)[N+]2=C1C`, the absorption maximum (in CC#N) amounted to 538 nm.

Turning to `CC(C)Nc1cc2sc3cc(NC(C)C)c(F)cc3c(=O)c2cc1F`, the absorption maximum (in CCO) is recorded as 377 nm.

For the compound `O=c1cc(-c2ccccc2)oc(-c2nc3ccccn3c2NC2CCCCC2)c1`, the absorption maximum (in ClCCl) is given as 353 nm.

Compound `CCCN1c2ccccc2Sc2cc(/C=C\c3cc(=O)oc4cc(C)c(Cl)cc34)ccc21` had an absorption maximum (in ClC(Cl)Cl) of 432 nm.

Turning to `COc1c2ccccc2c(OC)c2c1c1cccc(OC)c1n2C`, the absorption maximum runs as follows: (in C1CCCCC1) 409 nm; (in CC#N) 409 nm; (in CO) 407 nm; (in ClCCl) 412 nm.

`CCCCc1ccc(-n2c3c(c4c2c2c(n4-c4ccc(CCCC)cc4)-c4cc(F)ccc4NB2c2ccccc2)B(c2ccccc2)Nc2ccc(F)cc2-3)cc1` had an absorption maximum (in Cc1ccccc1) of 395 nm.

Turning to `CC1=CC(Br)=CN2C[n+]3cc(Br)cc(C)c3N=C12`, where the note is “in CO”, the absorption maximum is 436 nm.

As to `F[B-]1(F)OC(c2ccc(Br)cc2)=Cc2c3ccccc3c3ccccc3[n+]21`, under “in ClC(Cl)Cl”, the absorption maximum is listed as 435 nm.
